From ChEMBL document CHEMBL1122454, “Piperazinylimidazo[1,2-a]pyrazines with selective affinity for in vitro alpha-adrenergic receptor subtypes” (J Med Chem, 1983)

What was measured:
[1] = Displacement of [3H]clonidine from alpha-2-adrenergic receptor of calf neocortical membrane; parameters: species or system Bos taurus
[2] = Displacement of [3H]prazosin from alpha-1-adrenergic receptor of calf neocortical membrane; parameters: species or system Bos taurus
Bos taurus = species: Bos taurus; assay: Relative affinity for alpha-1 and alpha-2 adrenergic receptors; parameters: reference not given here

Kd [2] [µM] | Compound | Kd [1] [µM] | Kd ([2]; read-out: Kd) [µM] | Ratio (Bos taurus)
 | Clc1cnc2cnc(N3CCNCC3)cn12 | 18.9 | 6.8 | 0.36
 | Clc1cn2c3c(nc2c(N2CCNCC2)n1)CCCC3 | 1.5 | 0.2 | 0.13
 | Clc1cncc(N2CCNCC2)n1 [MK-212] | 0.15 | 2.4 | 16
0.043 | CN1CCN2c3ccccc3Cc3ccccc3C2C1 (configuration not stated) [MIANSERIN] | 0.019 |  | 2.3
 | c1cn2c(N3CCNCC3)cncc2n1 | 28.1 | 51 | 1.8
 | Clc1cn2c(Cl)cnc2c(N2CCNCC2)n1 | 1 | 0.41 | 0.4
 | Cc1cnc2c(N3CCNCC3)nc(Cl)cn12 | 0.25 | 0.16 | 0.64
 | CN1CCN(c2nc(Cl)cn3ccnc23)CC1 | 0.144 | 0.38 | 2.6
 | c1ccc2c(c1)N=C(N1CCNCC1)C1=NCCN12 | 1.8 | 1.3 | 0.72
 | c1ccc(-c2cn3ccnc3c(N3CCNCC3)n2)cc1 | 1.8 | 0.36 | 0.2
 | ClC1=CN2CCN=C2C(N2CCNCC2)=N1 | 1.6 | 3 | 1.9
 | Clc1cnc2c(N3CCNCC3)nccn12 | 0.29 | 2.78 | 9.6
 | Clc1cn2ccnc2c(N2CCNCC2)n1 | 0.088 | 0.25 | 2.8
 | c1cn2ccnc2c(N2CCNCC2)n1 | 0.019 | 3.1 | 160
